{"source": "patent US7635720B2", "about": "“Prostaglandin analog compositions to treat epithelial-related conditions” (Meta Cosmetics, LLC, priority 2007, dated 2009)", "key": {"eyelashes [1]": {"system": "eyelashes", "conditions": "background statement; cited from earlier work"}, "[2]": {"experiment": "Bovine cornea hydrolysis assay", "type": "in vitro ADME", "conditions": "for % Hydrolyzed after 12 hr (negative control): PBS pH 7.4 only, no cornea, 37° C.; for % Hydrolyzed after 12 hr, Avg: average of cornea samples 1-3; for % Hydrolyzed after 12 hr: one bovine cornea in 10 ml PBS pH 7.4, 37° C., 250 μg compound, individual cornea samples 1-3", "from_the_text": "A bovine cornea hydrolysis test system (K. M. Maxey, et al., “The Hydrolysis of Bimatoprost in Corneal Tissue Generates a Potential Prostanoid FP Receptor Agonist,” Survey of Ophthalmology, 47 (Suppl 1):S34-40 (2002)) has been used to determine whether four test compounds of the present invention, namely 16-phenoxy PGF2α cyclopropyl amide; 17-phenyl trinor PGF2α cyclopropyl amide; 16-phenoxy PGF2α cyclopropyl methyl amide; and 17-phenyl trinor PGF2α cyclopropyl methyl amide, react similarly to bimatoprost in this test system.\nBovine corneas are excised within 1-2 hour of death. For each compound tested, one cornea (0.6 g) is placed into an 18 mm×150 mm glass test tube containing 10 ml of phosphate-buffered saline (“PBS”) at pH 7.4. The compound of interest (250 μg in about 120 μl ethanol) is added to each test tube containing a cornea and to a tube containing only 10 ml of PBS (no cornea), which served as a negative control. Test tubes are covered with parafilm and incubated at 37° C. with shaking.\nAfter the first time point, a 5 ml aliquot is removed from each test tube and transferred into another marked test tube. The remaining material continues to incubate at 37° C. until subsequent test time point(s) is/are reached. For each test tube, 1.0 ml of 5% KHSO4 is added to bring the pH down to about 3 and sufficient NaCl is added to saturate the solution; the solution then is extracted three times with 80% ethyl acetate-hexane. The solvent is evaporated under nitrogen, dissolved in 200 μl of 80% ethyl acetate-hexane, and the 200 μl sample then transferred to a 2 ml screw cap vial. Samples are stored at −20° C. until run on an HPLC column.\nAfter the second time point, the cornea is removed from each experimental test tube. For each test tube, 1.0 ml of 5% KHSO4 is added to bring the pH down to about 3 and sufficient NaCl added to saturate the solution; the solution then is extracted three times with 80% ethyl acetate-hexane. The solvent is evaporated under nitrogen, dissolved in 200 μl of 80% ethyl acetate-hexane, and the 200 μl sample then transferred to 2 ml screw cap vials. Samples are stored at −20° C. until they are run on an HPLC column.\nFor HPLC, samples are run on a Beckman Ultrasphere ODS analytical C18 HPLC column (5μ, 4.6 mm×25 cm) at 1 ml/min using either 60:40:0.1 or 70:30:0.1 methanol:water:acetic acid as solvent. Absorbance is monitored at 210 nm."}, "eyelashes [3]": {"system": "eyelashes", "experiment": "Use for restoring eyelashes: transparent gel applied nightly at the skin-eyelash border, volunteers", "type": "in vivo, human", "from_the_text": "In one embodiment, the composition of the present invention is a transparent gel formulated according to Table 2. The formulation comprises water, at least one prostaglandin analog according to the present invention (concentration about 0.001% to about 0.05% w/w of the composition); a thickener, optionally a hair stimulating agent; caffeine, and at least one penetrating agent and the pH adjusted to 7.2. The gel is applied as a fine line at the skin-eyelash border every night on clean dry eyes. The gel is aqueous enough to spread to the hair follicles but thick enough not to drip.\nIn another embodiment, the composition is a transparent gel formulated to comprise at least one of 16-phenoxy PGF2α cyclopropyl amide; 17-phenyl trinor PGF2α cyclopropyl amide; 16-phenoxy PGF2α cyclopropyl methyl amide; or 17-phenyl trinor PGF2α cyclopropyl methyl amide (concentration about 0.001% to about 0.05% w/w of the composition) plus the following ingredients (Table 3):\n(§1) Test formulations contained either 0.025% or 0.05% 16-phenoxy PGF2α cyclopropyl amide. The formulation containing 0.025% 16-phenoxy PGF2α cyclopropyl amide was used on the left side, and the formulation containing 0.05% 16-phenoxy PGF2α cyclopropyl amide was used on the right side. Test formulations were given randomly to volunteers without consideration of coloration of eyelashes, race, ethnicity or sex."}, "eyebrows": {"system": "eyebrows", "experiment": "Use for restoring eyebrows: transparent gel applied nightly at the browbone, volunteers", "type": "in vivo, human", "from_the_text": "A composition prepared according to the present invention is formulated as a transparent gel as described in the two described embodiments of Example 2. The formulation comprises water, at least one prostaglandin analog according to the present invention (concentration about 0.001% to about 0.05% w/w of the composition); a thickener, optionally a hair stimulating agent; caffeine, and at least one penetrating agent and the pH adjusted to 7.2. The gel is applied by brush as a line at the browbone every night on clean, oil-free brows in the absence of makeup. The gel is sufficiently aqueous to spread to the hair follicles but thick enough not to drip.\nas §1"}, "[4]": {"conditions": "0.025% formulation left, 0.05% right"}, "[5]": {"conditions": "gel 0.025% / 0.05% nightly, single subject"}}, "note": "Several values for one entry are separate records, joined by “and”; a condition that tells them apart may be missing. Identical values can stand only once. Entries after “also recorded” stand apart in the source; their conditions may differ.", "data": [{"molecule": "CC(C)OC(=O)CCC/C=C\\C[C@@H]1[C@@H](CC[C@@H](O)CCc2ccccc2)[C@H](O)C[C@@H]1O", "note": "[Latanoprost]", "values": [{"measurement": "effect on eyelash growth (in words)", "setting": "eyelashes [1]", "value": "works poorly on eyelashes"}]}, {"molecule": "CC(C)OC(=O)CCC/C=C\\C[C@@H]1[C@@H](/C=C/[C@@H](O)COc2cccc(C(F)(F)F)c2)[C@H](O)C[C@@H]1O", "note": "[Travaprost, isopropyl (Z)-7-[(1R,2R,3R,5S)-3,5-dihydroxy-2-[(1E,3R)-3-hydroxy-4-[(α,α,α-trifluoro-m-tolyl)oxy]-1-butenyl]cyclopentyl]-5-heptenoate]", "values": [{"measurement": "effect on eyelash growth (in words)", "setting": "eyelashes [1]", "value": "does not work well for eyelash growth, taking longer than other like products"}]}, {"molecule": "O=C(CCC/C=C\\C[C@@H]1[C@@H](/C=C/[C@@H](O)CCc2ccccc2)[C@H](O)C[C@@H]1O)NC1CC1", "note": "[17-phenyl trinor PGF2α cyclopropyl amide, 17 phenyl trinor PGF2α cyclopropylamide]", "values": [{"measurement": "% Hydrolyzed after 12 hr (negative control)", "setting": "[2]", "value": 0, "unit": "%"}, {"measurement": "% Hydrolyzed after 12 hr, Avg", "setting": "[2]", "value": 1.82, "unit": "%"}, {"measurement": "% Hydrolyzed after 12 hr", "setting": "[2]", "value": "1.31% and 2.0% and 2.15%"}]}, {"molecule": "O=C(CCC/C=C\\C[C@@H]1[C@@H](/C=C/[C@@H](O)COc2ccccc2)[C@H](O)C[C@@H]1O)NC1CC1", "note": "[16-phenoxy PGF2α cyclopropyl amide, 16-phenoxy tetranor PGF2α cyclopropyl amide]", "values": [{"measurement": "left side (0.025%) versus right side (0.05%), eyelashes", "setting": "eyelashes [3]; [4]", "value": "no significant difference; also recorded: Right side was faster to grow; also recorded: Subject thought right side was better; also recorded: Subject thought left side was better"}, {"measurement": "increase in eyelash length", "setting": "eyelashes [3]; gel 0.025% (left) / 0.05% (right) nightly, single subject, final result or time not given", "value": "about 55% and approximately 80% and approximately 45% and 50% and 45% and approximately 60% and 100% and 45-50%"}, {"measurement": "eyelash appearance (in words)", "setting": "eyelashes [3]; [5]", "value": "darker, fuller and showed an upward curving angle of growth; also recorded: much thicker, fuller, longer and curvier than before use; also recorded: Lashes grew so much that by week 4 the test was discontinued because eyelashes were too long; also recorded: darker, fuller, and longer; also recorded: thicker and darker and curled upwards; also recorded: much thicker after 2 weeks; also recorded: much darker, thicker; also recorded: darker, and curved upwards; also recorded: longer, thicker and darker; also recorded: bushy, very thick, dark; also recorded: eyelashes had grown to the point of clear visibility below lids; also recorded: darker, thicker and lashes curled up; also recorded: darker and more upturned; also recorded: Noticeable improvement after 4 weeks even without mascara"}, {"measurement": "time by which increase in eyelash length / growth was obvious", "setting": "eyelashes [3]; [5]", "value": "about 3 weeks and ≤ 3 weeks and ≤ 2 weeks"}, {"measurement": "time to some thickening of eyelashes", "setting": "eyelashes [3]; [5]", "value": "≤ 10", "unit": "days"}, {"measurement": "increase in eyelash length", "setting": "eyelashes [3]; gel 0.025% / 0.05% nightly, single subject, 3 weeks", "value": "40% and 30%"}, {"measurement": "increase in eyelash length", "setting": "eyelashes [3]; gel 0.025% / 0.05% nightly, single subject, 4 weeks", "value": "about 50% and 50% and approximately 60%"}, {"measurement": "increase in eyelash length", "setting": "eyelashes [3]; gel 0.025% / 0.05% nightly, single subject, 5 weeks", "value": "Approximately 60%; also recorded: about 100%; also recorded: approximately 45%"}, {"measurement": "increase in eyelash length", "setting": "eyelashes [3]; gel 0.025% / 0.05% nightly, single subject, 6 weeks", "value": "100% and ~45% and 50%"}, {"measurement": "increase in eyelash length", "setting": "eyelashes [3]; gel 0.025% / 0.05% nightly, single subject, after two months", "value": "approximately 55%"}, {"measurement": "increase in numbers of eyelashes", "setting": "eyelashes [3]; gel 0.025% / 0.05% nightly, single subject, final or peak result", "value": "60% and 30% and 50%"}, {"measurement": "increase in eyelash thickness", "setting": "eyelashes [3]; gel 0.025% / 0.05% nightly, single subject, final result", "value": "approximately doubled and approximately 60% and 100% and ~100%"}, {"measurement": "tolerability of the product", "setting": "eyelashes [3]; subjects with dry eye", "value": "tolerated the product well"}, {"measurement": "left side (0.025%) versus right side (0.05%), eyebrows", "setting": "eyebrows; [4]", "value": "no significant difference"}, {"measurement": "eyebrow hair result (in words)", "setting": "eyebrows; gel 0.025% (left) / 0.05% (right) nightly, single subject", "value": "noticeable increase in number of hairs and color after 2 weeks; also recorded: Hairs started to fill in"}, {"measurement": "% Hydrolyzed after 12 hr (negative control)", "setting": "[2]", "value": 0, "unit": "%"}, {"measurement": "% Hydrolyzed after 12 hr, Avg", "setting": "[2]", "value": 1.78, "unit": "%"}, {"measurement": "% Hydrolyzed after 12 hr", "setting": "[2]", "value": "2.0% and 1.89% and 1.44%"}]}, {"molecule": "O=C(CCC/C=C\\C[C@@H]1[C@@H](/C=C/[C@@H](O)CCc2ccccc2)[C@H](O)C[C@@H]1O)NCC1CC1", "note": "[17 phenyl trinor PGF2α cyclopropyl methyl amide]", "values": [{"measurement": "% Hydrolyzed after 12 hr (negative control)", "setting": "[2]", "value": 0, "unit": "%"}, {"measurement": "% Hydrolyzed after 12 hr, Avg", "setting": "[2]", "value": 0.91, "unit": "%"}, {"measurement": "% Hydrolyzed after 12 hr", "setting": "[2]", "value": "0.83% and 0.8% and 1.1%"}]}, {"molecule": "O=C(CCC/C=C\\C[C@@H]1[C@@H](/C=C/[C@@H](O)COc2ccccc2)[C@H](O)C[C@@H]1O)NCC1CC1", "note": "[16-phenoxy tetranor PGF2α cyclopropyl methyl amide]", "values": [{"measurement": "% Hydrolyzed after 12 hr (negative control)", "setting": "[2]", "value": 0, "unit": "%"}, {"measurement": "% Hydrolyzed after 12 hr, Avg", "setting": "[2]", "value": 1.22, "unit": "%"}, {"measurement": "% Hydrolyzed after 12 hr", "setting": "[2]", "value": "1.28% and 1.18% and 1.2%"}]}, {"molecule": "CCNC(=O)CCC/C=C\\C[C@@H]1[C@@H](/C=C/[C@@H](O)CCc2ccccc2)[C@H](O)C[C@@H]1O", "note": "[Bimatoprost, cyclopentane N-ethyl heptenamide-5-cis-2-(3α-hydroxy-5-phenyl-1-trans-pentenyl)-3,4-dihydroxy, [1α, 2β, 3α, 5α]]", "values": [{"measurement": "effect on eyelash growth (in words)", "setting": "eyelashes [1]", "value": "effective to increase the growth of eyelashes"}, {"measurement": "incidence of hyperemia", "setting": "eyelashes [1]", "value": "highest incidence of hyperemia"}, {"measurement": "negative side effects", "setting": "eyelashes [1]", "value": "redness and discoloration along the periocular skin; eye irritation; and foreign body sensation"}]}]}
